Source: ChEMBL document CHEMBL1123847, “Synthesis and structure-activity relationship of 1-aryl-6,8-difluoroquinolone antibacterial agents” (1987)
Converted amounts (≈) assume the structure as drawn.

How the values were obtained:
Klebsiella aerogenes = assay: In vitro antibacterial activity against Enterobacter aerogenes ATCC 13048; assay type: functional
Escherichia coli [1] = assay: In vitro antibacterial activity against Escherichia coli Juhl; assay type: functional
Klebsiella pneumoniae = assay: In vitro antibacterial activity against Klebsiella pneumoniae 8045; assay type: functional
Pseudomonas aeruginosa [2] = assay: In vitro antibacterial activity against Pseudomonas aeruginosa K799/WT; assay type: functional
[3] = test system: Staphylococcus epidermidis; assay: In vitro antibacterial activity against Staphylococcus epidermis 3519; assay type: functional
Streptococcus pyogenes = assay: In vitro antibacterial activity against Streptococcus pyogenes 930; assay type: functional
Staphylococcus aureus [4] = assay: In vitro antibacterial activity against Staphylococcus aureus CMX 686B; assay type: functional
Staphylococcus aureus [5] = assay: In vitro antibacterial activity against Staphylococcus aureus ATCC 6538P; assay type: functional
Enterococcus faecium = assay: In vitro antibacterial activity against Streptococcus faecium ATCC 8043; assay type: functional
Acinetobacter = assay: In vitro antibacterial activity against Acinetobacter CMX 669; assay type: functional
Pseudomonas aeruginosa [6] = assay: In vitro antibacterial activity against Pseudomonas aeruginosa 5007; assay type: functional
Pseudomonas aeruginosa [7] = assay: In vitro mouse protection test against Pseudomonas aeruginosa 5007 (100 X LD50) (subcutaneous administration; Range is between (1.1-3.8).; assay type: functional; conditions: sc
Pseudomonas aeruginosa [8] = assay: […] against Pseudomonas aeruginosa 5007 (100 X LD50) (p.o. administration ); Range is between (6.8-26.2).; assay type: functional; conditions: po
Escherichia coli [9] = assay: animal or person; conditions: in Mus musculus, sc
Escherichia coli [10] = assay: animal or person; conditions: in Mus musculus, po
Staphylococcus aureus [11] = assay: animal or person; conditions: in Mus musculus, po
Description: In vitro mouse protection test against Staphylococcus aureus NCTC 10649 (100 X LD50) (p.o. administration );Range is between (9.9-24.1)

Staphylococcus aureus [12] = assay: animal or person; conditions: in Mus musculus, sc
Description: In vitro mouse protection test against Staphylococcus aureus NCTC 10649 (100 X LD50) (s.c. administration );Range is between (1.0-2.5)

Escherichia coli [13] = assay: Compound was evaluated in vivo for antibacterial activity against Escherichia coli Juhl (100 X LD50) (p.o. administration); Range is between (2.8-6.5); assay type: functional; conditions: po
Escherichia coli [14] = assay: Compound was evaluated in vivo for antibacterial activity against Escherichia coli Juhl (100 X LD50) (s.c. administration); Range is between (0.3-1.3); assay type: functional; conditions: sc
Escherichia coli [15] = assay: Compound was evaluated in vivo for antibacterial activity against Escherichia coli Juhl (100 X LD50) (p.o. administration); Range is between (3.8-11.2); assay type: functional
Pseudomonas aeruginosa [16] = assay: Compound was evaluated in vivo for antibacterial activity against Pseudomonas aeruginosa 5007 (100 X LD50) (s.c. administration); Range is between (1.0-2.5); assay type: functional; conditions: sc
Pseudomonas aeruginosa [17] = assay: Compound was evaluated in vivo for antibacterial activity against Pseudomonas aeruginosa 5007 (100 X LD50);; assay type: functional
Staphylococcus aureus [18] = assay: Compound was evaluated in vivo for antibacterial activity against Staphylococcus aureus NCTC 10649 (100 X LD50) (s.c. administration); Range is between (1.0-2.5); assay type: functional; conditions: sc
Pseudomonas aeruginosa [19] = assay: Compound was evaluated in vivo for antibacterial activity against Pseudomonas aeruginosa 5007 (100 X LD50) (p.o. administration); Range is between (13.4-34.4); assay type: functional; conditions: po

SMILES	MIC (Escherichia coli [1]) [µg/mL]	MIC (Klebsiella aerogenes) [µg/mL]	MIC (Klebsiella pneumoniae) [µg/mL]	MIC (Pseudomonas aeruginosa [2]) [µg/mL]	MIC [3] [µg/mL]	MIC (Streptococcus pyogenes) [µg/mL]	MIC (Staphylococcus aureus [4]) [µg/mL]	MIC (Staphylococcus aureus [5]) [µg/mL]	MIC (Enterococcus faecium) [µg/mL]	MIC (Acinetobacter) [µg/mL]	MIC (Pseudomonas aeruginosa [6]) [µg/mL]	further results
O=C(O)c1cn(C2CC2)c2cc(N3CCNCC3)c(F)cc2c1=O [CIPROFLOXACIN]		0.05 (≈ 0.151 µM)	0.02 (≈ 0.0604 µM)	0.1 (≈ 0.302 µM)	0.39 (≈ 1.18 µM)	0.39 (≈ 1.18 µM)	0.39 (≈ 1.18 µM)	0.2 (≈ 0.604 µM)	0.2 (≈ 0.604 µM)	1.56 (≈ 4.71 µM)	0.1 (≈ 0.302 µM)	ED50 (Pseudomonas aeruginosa [7]): 2.1 mg/kg; ED50 (Pseudomonas aeruginosa [8]): 13.3 mg/kg; ED50 (Escherichia coli [9]): 0.2 mg/kg; ED50 (Escherichia coli [10]): 1.9 mg/kg; ED50 (Staphylococcus aureus [11]): 15.5 mg/kg; ED50 (Staphylococcus aureus [12]): 1.6 mg/kg
CN1CCN(c2cc3c(cc2F)c(=O)c(C(=O)O)cn3-c2ccc(F)cc2)CC1 [DIFLOXACIN]	0.2 (≈ 0.501 µM)	0.78 (≈ 1.95 µM)	0.1 (≈ 0.25 µM)	1.56 (≈ 3.91 µM)	0.39 (≈ 0.976 µM)	1.56 (≈ 3.91 µM)	0.2 (≈ 0.501 µM)	0.2 (≈ 0.501 µM)	1.56 (≈ 3.91 µM)	0.78 (≈ 1.95 µM)	0.78 (≈ 1.95 µM)	
CCn1cc(C(=O)O)c(=O)c2cc(F)c(N3CCNCC3)cc21 [NORFLOXACIN]	0.1 (≈ 0.313 µM)	0.2 (≈ 0.626 µM)	0.1 (≈ 0.313 µM)	0.39 (≈ 1.22 µM)	1.56 (≈ 4.89 µM)	3.1 (≈ 9.71 µM)	0.78 (≈ 2.44 µM)	0.78 (≈ 2.44 µM)	0.78 (≈ 2.44 µM)	6.2 (≈ 19.4 µM)	0.39 (≈ 1.22 µM)	
Cl.O=C(O)c1cn(-c2ccc(F)cc2)c2cc(N3CCNCC3)c(F)cc2c1=O [SARAFLOXACIN HYDROCHLORIDE]	0.05	0.2	0.02	0.39	0.39	0.78	0.2	0.2	1.56	0.2	0.39	ED50 (Escherichia coli [13]): 4.3 mg/kg; ED50 (Escherichia coli [14]): 0.6 mg/kg; ED50 mg/kg (Escherichia coli [15]): 6.5; ED50 (Pseudomonas aeruginosa [16]): 1.6 mg/kg; MIC (Pseudomonas aeruginosa [17]): 0.39 µg/mL; ED50 (Staphylococcus aureus [18]): 1.6 mg/kg; ED50 (Pseudomonas aeruginosa [19]): 21.4 mg/kg

Further lines, with some results ahead:

MIC (Escherichia coli [1]) [µg/mL]	SMILES	MIC (Klebsiella aerogenes) [µg/mL]	MIC (Klebsiella pneumoniae) [µg/mL]	MIC (Pseudomonas aeruginosa [2]) [µg/mL]	MIC [3] [µg/mL]	MIC (Streptococcus pyogenes) [µg/mL]	MIC (Staphylococcus aureus [4]) [µg/mL]	MIC (Staphylococcus aureus [5]) [µg/mL]	MIC (Enterococcus faecium) [µg/mL]	MIC (Acinetobacter) [µg/mL]	MIC (Pseudomonas aeruginosa [6]) [µg/mL]	further results
0.2 (≈ 0.496 µM)	NC1CCN(c2c(F)cc3c(=O)c(C(=O)O)cn(-c4ccc(F)cc4)c3c2F)C1 (stereo not drawn)	0.2 (≈ 0.496 µM)	0.05 (≈ 0.124 µM)	1.56 (≈ 3.87 µM)	0.39 (≈ 0.967 µM)	1.56 (≈ 3.87 µM)	0.2 (≈ 0.496 µM)	0.2 (≈ 0.496 µM)	3.1 (≈ 7.69 µM)	0.78 (≈ 1.93 µM)	3.1 (≈ 7.69 µM)	
0.02 (≈ 0.0519 µM)	NC1CCN(c2cc3c(cc2F)c(=O)c(C(=O)O)cn3-c2ccc(F)cc2)C1 (stereo not drawn)	0.05 (≈ 0.13 µM)	0.02 (≈ 0.0519 µM)	0.2 (≈ 0.519 µM)	0.05 (≈ 0.13 µM)	0.1 (≈ 0.259 µM)	0.05 (≈ 0.13 µM)	0.05 (≈ 0.13 µM)	0.78 (≈ 2.02 µM)	0.2 (≈ 0.519 µM)	0.2 (≈ 0.519 µM)	
